SMILES strings stand for the structures. Activity calls are given as the source filed them.

Here are results for one compound from ChEMBL document CHEMBL1201862, “PubChem BioAssay data set” (2004).

The nature of experiment [1]: A Cell Based Secondary Assay to Explore Cytotoxicity in THP-1 Cells of Compounds that Modulate Mycobacterium tuberculosis in Media Containing Glycerol versus Media without Glycerol (2). It is filed as functional.
Experiment [2] can be described thus: microbe, parasite or virus in culture. Type of experiment: functional. Conditions: Mycobacterium tuberculosis.
A short description of experiment [3]: A Cell Based Secondary Assay to Explore Cytotoxicity in HepG2 Cells of Compounds that Modulate Mycobacterium tuberculosis in Media Containing Glycerol versus Media without Glycerol (2). It is filed as functional.
Experiment [4] can be described thus: HepG2 cell cytotoxicity, cytotoxicity control, set 4 (AID 504910). It is filed as functional. As to conditions: Mycobacterium tuberculosis.
Experiment [5] can be described thus: THP-1 cell cytotoxicity, dose response, cytotoxicity control, set 3 (AID 504852). It is filed as functional. As to conditions: Mycobacterium tuberculosis.
Experiment [6] in a line: THP-1 cell cytotoxicity, cytotoxicity control, set 4 (AID 504911). Type of experiment: functional. As to conditions: Mycobacterium tuberculosis.
Experiment [7] in a line: Vero cell cytotoxicity, dose response, cytotoxicity control for M. tuberculosis growth inhibitor project, Vero cells, purified and synthesized compounds, set 5 (AID 504909). Type of experiment: functional. Conditions: Mycobacterium tuberculosis.
The target in experiment [8] is T1, Corticotropin-releasing factor receptor 2/Corticotropin-releasing factor-binding protein (Homo sapiens, UniProt P24387+Q13324).
T1 sequence (Q13324 whole entry): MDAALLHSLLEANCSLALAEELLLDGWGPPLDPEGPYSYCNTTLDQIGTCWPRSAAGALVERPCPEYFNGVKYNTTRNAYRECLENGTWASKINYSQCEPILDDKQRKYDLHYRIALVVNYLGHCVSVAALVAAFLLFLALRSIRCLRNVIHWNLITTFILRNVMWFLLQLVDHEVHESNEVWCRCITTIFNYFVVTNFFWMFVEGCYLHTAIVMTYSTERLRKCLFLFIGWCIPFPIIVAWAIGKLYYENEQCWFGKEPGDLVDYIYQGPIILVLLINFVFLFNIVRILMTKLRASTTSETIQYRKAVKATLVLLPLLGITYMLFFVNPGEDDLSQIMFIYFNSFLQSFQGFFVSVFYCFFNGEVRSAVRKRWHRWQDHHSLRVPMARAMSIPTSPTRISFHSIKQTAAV
T1 sequence (P24387 whole entry): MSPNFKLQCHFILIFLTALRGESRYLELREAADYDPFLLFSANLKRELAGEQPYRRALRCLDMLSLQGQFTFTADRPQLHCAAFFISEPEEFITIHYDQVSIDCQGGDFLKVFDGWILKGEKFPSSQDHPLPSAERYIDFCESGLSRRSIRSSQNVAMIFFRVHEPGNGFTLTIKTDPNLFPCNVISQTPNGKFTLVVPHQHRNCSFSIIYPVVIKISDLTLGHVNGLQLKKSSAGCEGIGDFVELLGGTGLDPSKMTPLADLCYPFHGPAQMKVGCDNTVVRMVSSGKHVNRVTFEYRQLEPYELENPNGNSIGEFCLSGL
Put plainly: Dose Response confirmation of uHTS hits for small molecule antagonists of the CRF-binding protein and CRF-R2 receptor complex. Type of experiment: functional. As to conditions: read-out: IC50_Mean.

The nature of experiment [9]: HepG2 cell cytotoxicity, dose response, cytotoxicity control, set 3 (AID 504853). As to conditions: Mycobacterium tuberculosis. Type of experiment: functional.
Experiment [10] in a line: Vero cell cytotoxicity, cytotoxicity control for M. tuberculosis inhibitor project, purified and synthesized samples, set 3 (AID 504684). It is filed as functional. As to conditions: […].
A short description of experiment [11]: Vero cell cytotoxicity, dose response, cytotoxicity control for M. tuberculosis growth inhibitor project, Vero cells, purified and synthesized compounds, set 4 (AID 504854). Type of experiment: functional. As to conditions: Mycobacterium tuberculosis.
Experiment [12] is described as follows: blockers of CRF-binding protein–CRF-R2 complex – cell-based, uHTS hits, 384-well, dose response (AID 651639). Type of experiment: functional, Homo sapiens. Conditions: read-out: IC50_Mean.
In experiment [13] the target is T1, Corticotropin-releasing factor receptor 2/Corticotropin-releasing factor-binding protein. The experiment is described as follows: activators of CRF receptor 2 with binding protein – uHTS hits, confirmation (AID 602473). As to conditions: read-out: EC50_Mean. It is filed as functional.

For the compound `Cc1ccc(C(=O)N/N=C(/CC(=O)c2cccs2)C(F)(F)F)cc1`, the CC50 in [1] is 89.8 µM (active); in experiment [2] it was 28.2 µM (active); in [3], 35 µM (active); in experiment [4], 38.8 µM (active); in experiment [5], 51.4 µM (active); in experiment [6], 46.3 µM (active). For the same compound, the CC50 in [7] was 34.4 µM (active); in [9], > 50 µM (active); in experiment [10] it was 61.7 µM (active); in [11] it was 55 µM (active). Besides, the IC50 in experiment [8] is 4.48 µM (active); in experiment [12], 16 µM (active). In addition, the EC50 in [13] was > 53 µM (inactive).
